Laboratory results as given in patent publication US9163003B2, “4-piperidinyl compounds for use as tankyrase inhibitors” (NOVARTIS AG, priority 2011, dated 2015).
Read-outs that look alike come from different tables or passages of the source.

Columns and labels:
[1] = target: tankyrase 2 protein PARP domain, TNKS2P (GST-tagged) (Homo sapiens (Human), UniProt Q9H2K2); test: TNKS2 autoparsylation (AP) biochemical assay, LC/MS detection of nicotinamide; conditions: 20 nM enzyme, 250 μM NAD+, 60 min room temperature
[2] = target: human tankyrase 1 PARP catalytic domain, TNKS1P (GST-tagged) (Homo sapiens (Human), UniProt O95271); test: TNKS1 autoparsylation (AP) biochemical assay, LC/MS detection of nicotinamide; conditions: 20 nM enzyme, 250 μM NAD+, 60 min room temperature
Procedure: The human tankyrase 1 PARP catalytic domain, TNKS1P, was cloned into a pDONR221 vector using the Invitrogen Gateway Technology. This entry clone was then subcloned into the destination vector pDEST20 to obtain the N-terminal Glutathione S-transferase (GST)-tagged fusion protein.
The autoparsylation activity of the TNKS 1/2 or PARP1/2 enzymes was measured by the liquid chromatography-mass spectrometry (LC/MS) detection of nicotinamide as readout. Compound activity in inhibiting the TNKS and PARP autoparsylation was evaluated by IC50 measurements.

[3] = tested on: Wnt ligand-induced signaling; test: Wnt-responsive Super-TOpFlash (STF) luciferase reporter gene assay in HEK293 cells; type: cell-based; conditions: Wnt3A condition medium induced
Procedure: Compound activity in inhibiting Wnt ligand-induced signaling was measured using a Wnt-responsive Super-TOpFlash (STF) luciferase reporter gene assay in HEK293 cells. On day 1 of the assay, cells were plated at a density of 8000 cells per well of 384-well plate in 25 μl medium containing 5% fetal bovine serum (FBS). On the second day, […] condition medium (CM) produced from mouse L cells was added to the cells to induce Wnt signaling, followed by addition of 5 μL of compounds each well in 10-point serial dilution. On the third day, the luciferase activity was measured by the Bright-Glo™ Luciferase Assay System following manufacture's protocol (Promega, E2620). The Inhibition was calculated as: (Maximum Wnt-induced signaling−Sample)/(Maximum Wnt-induced signaling−Background)*100. “Maximum Wnt-induced signaling” is the STF signal level induced by 20% Wnt3A CM without compound; and “Background” is the STF signal level without the addition of Wnt3A CM or compound.

Axin2 protein = test: Cellular ELISA assay for stabilizing the Axin2 protein in SW480 cells; type: cell-based; conditions: 24 hrs treatment, read-out: Axin AC50
Procedure: Compound activity in stabilizing the Axin2 protein was measured by Sandwich Enzyme-Linked Immuosorbent (ELISA) assay in the colorectal cell line SW480. 30,000 SW480 cells were seeded per well in 96-well plate and incubated overnight prior to compound treatment. Cells were then treated with compounds in 6-point dilution starting at 10 μM for 24 hrs. Cells were then washed with 100 μL of cold Phosphate Buffer Saline (PBS), and lysed in 125 μl of cold 1× lysis buffer (Cell Signaling Technology, 9803) supplemented with Protease inhibitor (Roche, 11836170) and Phosphatase inhibitors (Sigma, P2850, P5726). For the ELISA assay, anti Axin-2 capture antibody (Strategic Diagnostics) antibody was diluted to a concentration of 1 μg/ml (1:1000) in Carbonate Coating buffer, pH 9.2 (Sigma, C3041-50CAP). 100μ of the diluted anti Axin-2 capture antibody per well was then used to coat the 96-well ELISA plate (Thermo Electron Corp., MicroLite 1 flat bottom plate #7571) overnight at 4° C. Plates were then washed three times with 300 μl/well of wash solution, PBST20 (PBS+0.05% Tween), and blocked with 300 μl/well 1% BSA/PBS (BSA, Millipore Probumin #82-045-1) for 1.5 hours at room temperature while shaking gently. After blocking, plates were then washed three times with 300 μl/well of wash solution. 100 μL of prepared SW480 cell lysate was then added to each well and incubated at room temperature for 2 hours while shaking gently. After washing, 100 μL of Biotinylated anti-Axin2 antibody (CST, 2151) was added to each well and incubated room temperature for 2 hours. 100 μL of Streptavidin-HRP (R&D systems, DY998) diluted 1:200 in 1% BSA/PBS was then added in each well and incubate for 30 mins at R/T in the dark. Signal was detected by Chemiluminescence (Pierce SuperSignal ELISA Femto #3704), and measured on PerkinElmer Wallac 1420 plate reader.

[4] = tested on: Non-small lung cancer ABC-1 cells; test: Cellular proliferation assay, ABC-1 cells (CellTiter-Glo); type: cell-based; conditions: 3 days of compound treatment
Procedure: Non-small lung cancer ABC-1 cells were plated at 5000 cells per well in 96-well plates and treated with 8 serial compound dilutions starting from 10 μM as the highest concentration. Viable cells were measured after 3 days of compound treatment using the CellTiter-Glo assay (Promega, G7570). Assay was performed following the manufacture protocol.

human tankyrase 1 PARP catalytic domain, TNKS1P (GST-tagged), sequence (O95271 1112-1317): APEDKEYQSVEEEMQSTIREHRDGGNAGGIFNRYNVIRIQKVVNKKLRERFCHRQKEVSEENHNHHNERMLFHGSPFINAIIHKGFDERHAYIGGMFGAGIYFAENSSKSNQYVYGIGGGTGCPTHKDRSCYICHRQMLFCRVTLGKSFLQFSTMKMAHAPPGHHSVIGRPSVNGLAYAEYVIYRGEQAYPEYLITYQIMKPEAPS
tankyrase 2 protein PARP domain, TNKS2P (GST-tagged), sequence (Q9H2K2 959-1164): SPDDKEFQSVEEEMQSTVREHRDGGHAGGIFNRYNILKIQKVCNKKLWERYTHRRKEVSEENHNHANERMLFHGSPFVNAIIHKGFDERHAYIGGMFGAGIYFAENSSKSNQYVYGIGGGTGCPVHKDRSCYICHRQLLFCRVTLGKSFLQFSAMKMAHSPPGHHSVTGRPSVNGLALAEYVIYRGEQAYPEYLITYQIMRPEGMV

## COc1ccc(C(=O)C2CCN(C3CCN(Cc4cccc(Cl)c4C#N)C3=O)CC2)cc1 (stereo not shown) [Example 1, 2-Chloro-6-{3-[4-(4-methoxy-benzoyl)-piperidin-1-yl]-2-oxo-pyrrolidin-1-ylmethyl}-benzonitrile]
[1]
  IC50: 81 ± 1 nM
[2]
  IC50: 162 ± 4 nM
[3]; Homo sapiens
  IC50: 99 ± 11 nM
Axin2 protein; Homo sapiens
  AC50: 239 ± 31 nM
[4]; Homo sapiens, 72 h
  IC50: 408 nM

## COc1ccc(C(=O)C2CCN([C@@H]3CCN(Cc4nc5c(c(=O)[nH]4)COCC5)C3=O)CC2)cc1 [Example 4, 2-{(R)-3-[4-(4-Methoxy-benzoyl)-piperidin-1-yl]-2-oxo-pyrrolidin-1-ylmethyl}-3,5,7,8-tetrahydro-pyrano[4,3-d]pyrimidin-4-one]
[1]
  IC50: 600 ± 330 nM
[2]
  IC50: 1600 ± 1200 nM
[3]; Homo sapiens
  IC50: 95 ± 11 nM
Axin2 protein; Homo sapiens
  AC50: 310 ± 270 nM
[4]; Homo sapiens, 72 h
  IC50: 1020 ± 340 nM

## COc1ccc(C(=O)C2CCN(C3CCN(Cc4ccc(Cl)c(C#N)c4)C3=O)CC2)cc1 (stereo not shown) [Example 5, 2-Chloro-5-((3-(4-(4-methoxybenzoyl)piperidin-1-yl)-2-oxopyrrolidin-1-yl)methyl)benzonitrile]
[1]
  IC50: 15 ± 1 nM
[2]
  IC50: 36 ± 1 nM
[3]; Homo sapiens
  IC50: 17 ± 3 nM
Axin2 protein; Homo sapiens
  AC50: 66 ± 1 nM
[4]; Homo sapiens, 72 h
  IC50: 156 nM

## COc1ccc(C(=O)C2CCN(C3CCN(Cc4nc5ccsc5c(=O)[nH]4)C3=O)CC2)cc1 (stereo not shown) [Example 7]
[1]
  IC50: 83 ± 5 nM
[2]
  IC50: 211 ± 63 nM
[3]; Homo sapiens
  IC50: 54 ± 12 nM
Axin2 protein; Homo sapiens
  AC50: 451 ± 68 nM
[4]; Homo sapiens, 72 h
  IC50: 1470 nM

## COc1ccc(C(=O)C2CCN(C3CCN(Cc4nc5sc(C)cc5c(=O)[nH]4)C3=O)CC2)cc1 (stereo not shown) [Example 8]
[1]
  IC50: 141 ± 40 nM
[2]
  IC50: 96 ± 28 nM
[3]; Homo sapiens
  IC50: 18 ± 4 nM
Axin2 protein; Homo sapiens
  AC50: 78 ± 13 nM
[4]; Homo sapiens, 72 h
  IC50: 133 nM

## O=C(c1ccc(F)cc1)C1CCN([C@@H]2CCN(Cc3nc4c(c(=O)[nH]3)COCC4)C2=O)CC1 [Example 12, 2-{(R)-3-[4-(4-Fluoro-benzoyl)-piperidin-1-yl]-2-oxo-pyrrolidin-1-ylmethyl}-3,5,7,8-tetrahydro-pyrano[4,3-d]pyrimidin-4-one]
[1]
  IC50: 2120 ± 50 nM
[2]
  IC50: 5340 ± 340 nM
[3]; Homo sapiens
  IC50: 620 ± 90 nM
Axin2 protein; Homo sapiens
  AC50: > 10000 nM
[4]; Homo sapiens, 72 h
  IC50: > 10000 nM

## COc1ccc(C(=O)C2CCN([C@@H]3CCN(Cc4nc5c(c(=O)[nH]4)COCC5)C3=O)CC2)cc1C [Example 14, 2-{(R)-3-[4-(4-Methoxy-3-methyl-benzoyl)-piperidin-1-yl]-2-oxo-pyrrolidin-1-ylmethyl}-3,5,7,8-tetrahydro-pyrano[4,3-d]pyrimidin-4-one]
[1]
  IC50: 206 ± 20 nM
[2]
  IC50: 711 ± 20 nM
[3]; Homo sapiens
  IC50: 31 ± 3 nM
Axin2 protein; Homo sapiens
  AC50: 128 ± 130 nM
[4]; Homo sapiens, 72 h
  IC50: 149 nM

## COc1ccc2c(c1)CC1(CCN(C3CCN(Cc4nc5c(c(=O)[nH]4)COCC5)C3=O)CC1)C2=O (stereo not shown) [Example 15, 2-((3-(5-methoxy-1-oxo-1,3-dihydrospiro[indene-2,4′-piperidine]-1′-yl)-2-oxopyrrolidin-1-yl)methyl)-7,8-dihydro-3H-pyrano[4,3-d]pyrimidin-4(5H)-one]
[2]
  IC50: 33 ± 2 nM
[3]; Homo sapiens
  IC50: < 0.5 nM
Axin2 protein; Homo sapiens
  AC50: 16 ± 1 nM
[4]; Homo sapiens, 72 h
  IC50: 43 nM

## COc1ccc2c(c1)CC1(CCN([C@H]3CCN(Cc4nc5c(c(=O)[nH]4)COCC5)C3=O)CC1)C2=O [Example 16]
[2]
  IC50: 12 ± 1 nM
[3]
  IC50: 1.7 ± 0.2 nM
Axin2 protein
  AC50: 7 ± 1 nM
[4]
  IC50: 82 nM

## COc1ccc2c(c1)CC1(CCN([C@@H]3CCN(Cc4nc5c(c(=O)[nH]4)COCC5)C3=O)CC1)C2=O [Example 17]
[2]
  IC50: 3850 ± 480 nM
[3]
  IC50: 396 ± 10 nM
Axin2 protein
  AC50: 1790 ± 140 nM
[4]
  IC50: 2000 ± 900 nM

## COc1ccc(C(=O)C2CCN(C3CCCN(Cc4nc5c(c(=O)[nH]4)COCC5)C3=O)CC2)cc1 (stereo not shown) [Example 18, 2-[4-(4-Methoxy-benzoyl)-2′-oxo-[1,3′]bipiperidinyl-1′-ylmethyl]-3,5,7,8-tetrahydro-pyrano[4,3-d]pyrimidin-4-one]
[1]
  IC50: 15 ± 1 nM
[2]
  IC50: 46 ± 1 nM
[3]; Homo sapiens
  IC50: 5.6 ± 0.7 nM
Axin2 protein; Homo sapiens
  AC50: 51 ± 7 nM
[4]; Homo sapiens, 72 h
  IC50: 99 nM

## COc1ccc(C(=O)C2CCN(C3CCN(Cc4nccc(=O)[nH]4)C3=O)CC2)cc1 (stereo not shown) [Example 22, 2-{3-[4-(4-Methoxy-benzoyl)-piperidin-1-yl]-2-oxo-pyrrolidin-1-ylmethyl}-3H-pyrimidin-4-one]
[1]
  IC50: 764 ± 56 nM
[2]
  IC50: 1500 ± 120 nM
[3]; Homo sapiens
  IC50: 390 ± 190 nM

## COc1ccc(C(=O)C2CCN(C3CCN(Cc4nc(C)cc(=O)[nH]4)C3=O)CC2)cc1 (stereo not shown) [Example 23, 2-{3-[4-(4-Methoxy-benzoyl)-piperidin-1-yl]-2-oxo-pyrrolidin-1-ylmethyl}-6-methyl-3H-pyrimidin-4-one]
[1]
  IC50: 137 ± 22 nM
[2]
  IC50: 286 ± 5 nM
[3]; Homo sapiens
  IC50: 56 ± 33 nM
Axin2 protein; Homo sapiens
  AC50: 227 ± 25 nM
[4]; Homo sapiens, 72 h
  IC50: 489 nM

## COc1ccc(C(=O)C2CCN(C3CCN(Cc4nc5ccccc(=O)c5[nH]4)C3=O)CC2)cc1 (stereo not shown) [Example 27, 2-((3-(4-(4-methoxybenzoyl)piperidin-1-yl)-2-oxopyrrolidin-1-yl)methyl)cyclohepta[d]imidazol-4(3H)-one]
[2]
  IC50: 36 ± 3 nM
[3]; Homo sapiens
  IC50: 0.4 ± 0.3 nM
Axin2 protein; Homo sapiens
  AC50: 3.2 ± 0.1 nM
[4]; Homo sapiens, 72 h
  IC50: 1.5 nM

## COc1ccc(C(=O)C2CCN([C@@H]3CCN(Cc4nc5ccccc(=O)c5[nH]4)C3=O)CC2)cc1C [Example 29, 2-{(R)-3-[4-(4-Methoxy-3-methyl-benzoyl)-piperidin-1-yl]-2-oxo-pyrrolidin-1-ylmethyl}-3H-cycloheptaimidazol-4-one]
[1]
  IC50: 112 nM
[2]
  IC50: 278 ± 50 nM
[3]; Homo sapiens
  IC50: 14 ± 4 nM
Axin2 protein; Homo sapiens
  AC50: 9 ± 1 nM
[4]; Homo sapiens, 72 h
  IC50: 10 nM

## COc1ccc(C(=O)C2CCN([C@H]3CCN(Cc4nc5ccccc(=O)c5[nH]4)C3=O)CC2)cc1 [Example 30, 2-{(S)-3-[4-(4-Methoxy-benzoyl)-piperidin-1-yl]-2-oxo-pyrrolidin-1-ylmethyl}-3H-cycloheptaimidazol-4-one]
[2]
  IC50: 9.5 ± 0.7 nM
[3]; Homo sapiens
  IC50: 1.1 ± 0.1 nM
Axin2 protein; Homo sapiens
  AC50: 0.6 ± 0.1 nM
[4]; Homo sapiens, 72 h
  IC50: 0.86 ± 0.1 nM

## COc1ccc(C(=O)C2CCN([C@H]3CCN(CC(=O)Nc4nnc5n4CCS5)C3=O)CC2)cc1 [Example 33]
[2]
  IC50: 830 ± 20 nM
Axin2 protein
  AC50: 1340 ± 110 nM
[4]
  IC50: 1610 nM

## COc1ccc(C(=O)C2CCN(C3CCN(CC(=O)Nc4nnnn4C)C3=O)CC2)cc1 (stereo not shown) [Example 36, 2-(3-(4-(4-methoxybenzoyl)piperidin-1-yl)-2-oxopyrrolidin-1-yl)-N-(1-methyl-1H-tetrazol-5-yl)acetamide]
[1]
  IC50: 1480 ± 20 nM
[2]
  IC50: 3080 ± 230 nM
[3]; Homo sapiens
  IC50: 7600 ± 800 nM
[4]; Homo sapiens, 72 h
  IC50: > 10000 nM

## COc1ccc(C(=O)C2CCN(C3CCN(CC(=O)Nc4nncc5c4CCCO5)C3=O)CC2)cc1 (stereo not shown) [Example 37, N-(3,4-dihydro-2H-pyrano[2,3-d]pyridazin-5-yl)-2-(3-(4-(4-methoxybenzoyl)piperidin-1-yl)-2-oxopyrrolidin-1-yl)acetamide]
[1]
  IC50: 970 ± 60 nM
[2]
  IC50: 3010 ± 60 nM
[3]; Homo sapiens
  IC50: 396 ± 26 nM
[4]; Homo sapiens, 72 h
  IC50: 2230 nM

## COc1ccc(C(=O)C2CCN(C3CCN(CC(=O)Nc4noc5ncccc45)C3=O)CC2)cc1 (stereo not shown) [Example 38, N-(isoxazolo[5,4-b]pyridin-3-yl)-2-(3-(4-(4-methoxybenzoyl)piperidin-1-yl)-2-oxopyrrolidin-1-yl)acetamide]
[1]
  IC50: 4560 ± 40 nM
[2]
  IC50: 6500 ± 800 nM
[3]; Homo sapiens
  IC50: 2030 ± 180 nM
[4]; Homo sapiens, 72 h
  IC50: 7900 nM
